In test [1] the test system is Pancreatic Carcinoma MIA PaCa-2 cell. Description: Cell proliferation inhibition, MIA PaCa-2 (CellTiter-Glo). Format: cell-based. The conditions noted are these: Homo sapiens, MIA PaCa-2, incubated for 12 days (read after 8 or 12 days), read-out: IC50 (μM) MIA PaCa2. The text has this:
(§1) Materials and Cell Lines: Z-138, U251, and MIA PaCa2 cells were purchased from ATCC (American Type Culture Collection, Manassas, Va.) and Chinese Academy of Science (Shanghai, China). Iscove's Modified Dulbecco's Medium (IMDM), Dulbecco's Modified Eagle Medium (DMEM), penicillin-streptomycin, heat inactivated fetal bovine serum (FBS), and horse serum was purchased from ThermoFisher, Waltham, Mass., USA. Corning 96- and 384-well cell culture plates were purchased from ThermoFisher, Waltham, Mass., USA. Cell-Titer Glo® was purchased from Promega Corporation, Madison, Wis., USA.
In order to evaluate the inhibitory ability of compounds synthesized on the proliferation of the Pancreatic Carcinoma MIA PaCa-2 cell, exponentially growing cells were seeded in the culture media of DMEM with 10% FBS, 2.5% horse serum, 1 mM of Sodium Pyruvate and 1% penicillin-streptomycin at a concentration of 2500 cells/ml in a 384-well plate with 20 ul per well and incubated overnight at 37° C., 5% CO2 incubator. Compounds were prepared as 10-point, 3-fold serial dilutions in DMSO, beginning at 6 mM. 1 μl of DMSO solutions from the compound stock plates were added to 99 ul of cell media (final top concentration of compound in the assay was 30 uM and the final concentration of DMSO was 0.5%). 20 μL of compound solutions in media were added to each well of MIA PaCa-2 cell plates. After adding compound solutions, assay plates were incubated for 12 days at 37° C., 5% CO2. During this incubation period, cell media was changed every 4 days. After removing old media from cell plates, 40 ul of media with testing compounds dissolved, which were prepared by adding 1 ul of compound DMSO serial solutions to 199 ul of cell media, were added to the assay plates with the same layout as they were initially prepared. After 8 or 12 days, cell viability was measured using the CellTiter-Glo assay kit from Promega (Madison, Wis., USA) by quantitating the ATP present in the cell cultures. 20 μL of CellTiter-Glo reagent was added to each well of the cell plates. Luminescence was read after 10 minute of incubation with the Envision multiple plate reader from PerkinElmer (Waltham, Mass., USA). The concentrations of compounds inhibiting cell viability by 50% (IC50 values) were determined using a sigmoidal dose-response model (variable slopes, four parameters) in Prism 7 (La Jolla, Calif., USA).

The subject of test [2] is Mantle Cell Lymphoma Z-138 cell. The test is described as follows: Cell proliferation inhibition, Z-138 (CCK8). Format: cell-based. The settings on record: Homo sapiens, Z-138, 96 h, Z-138, incubated 4 days.
Text: as §1
In order to evaluate the inhibitory ability of compounds synthesized on the proliferation of the Mantle Cell Lymphoma Z-138 cell, exponentially growing cells were seeded in the media of IMDM with 10% horse serum and 1% penicillin-streptomycin at a concentration of 30000 cells/ml in a 96-well plate with 100 ul per well and incubated overnight at 37° C., 5% CO2 incubator. Compounds were prepared as 10-point, 3-fold serial dilutions in DMSO, beginning at 6 mM. 1 μl of DMSO solutions from the compound stock plates were added to 99 ul of cell culture media (final top concentration of compound in the assay was 30 uM and the final concentration of DMSO was 0.5%). 100 μL of compound solutions in media were added to each well of Z-138 cell plates. After adding compound solutions, assay plates were incubated for 4 days at 37° C., 5% CO2. Cell viability was measured using the Cell Counting Kit-8 (CCK8) obtained from the Beyotime Biotehnology, Shanghai, China. 20 ul of CCK8 reagent was added to each well of the Z-138 assay plate which was incubated at 37° C. for 2 hours. O.D. at 450 nm was read with the FlexStation 3 microplate reader (Molecular Devices, Sunnyvale, Calif. 94089 USA). The concentrations of compounds inhibiting cell viability by 50% (IC50 values) were determined using a sigmoidal dose-response model (variable slopes, four parameters) in Prism 7 (La Jolla, Calif.).

Another test deals with Glioblastoma U-251 cell. Description: Cell proliferation inhibition, U-251 (CellTiter-Glo). Format: cell-based. The settings on record: Homo sapiens, U-251, incubated for 12 days (read after 8 or 12 days).
Text: as §1
In order to evaluate the inhibitory ability of compounds synthesized on the proliferation of the Glioblastoma U-251 cell, exponentially growing cells were seeded in the cell culture media of DMEM with 10% FBS and 1% penicillin-streptomycin at a concentration of 10000 cells/ml in a 384-well plate with 20 ul per well and incubated overnight at 37° C., 5% CO2 incubator. Compounds were prepared as 10-point, 3-fold serial dilutions in DMSO, beginning at 6 mM. 1 μl of DMSO solutions from the compound stock plates were added to 99 ul of cell culture media (final top concentration of compound in the assay was 30 uM and the final concentration of DMSO was 0.5%). 20 μL of compound solutions in media were added to each well of U-251 cell plates. After adding compound solutions, assay plates were incubated for 12 days at 37° C., 5% CO2. During this incubation period, cell culture media with freshly dissolved testing compounds was changed every 4 days. After removing old media from cell plates, 40 ul of media with testing compounds dissolved, which were prepared by adding 1 ul of compound DMSO serial solutions to 199 ul of cell media, were added to the assay plates with the same layout as they were initially prepared. After 8 or 12 days, cell viability was measured using the CellTiter-Glo assay kit from Promega (Madison, Wis., USA) by quantitating the ATP present in the cell cultures. 20 μL of CellTiter-Glo reagent was added to each well of the cell plates. Luminescence was read after 10 minute of incubation with the Envision multiple plate reader from PerkinElmer (Waltham, Mass., USA). The concentrations of compounds inhibiting cell viability by 50% (IC50 values) were determined using a sigmoidal dose-response model (variable slopes, four parameters) in Prism 7 (La Jolla, Calif., USA).
On the technique in general: ATP-based viability assays read luminescence as a measure of living cells.

The target of test [3] is Human recombinant PRMT5 in complex with human recombinant MEP50 (Homo sapiens (Human), UniProt O14744). The test is described as follows: PRMT5/MEP50 AlphaLISA enzyme inhibitory assay. Format: biochemical. The settings on record: PRMT5/MEP50 25 nM, SAM 10 μM, Biotin-H4 peptide 30 nM. In short, it runs like this:
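Insect-cell-expressed PRMT5/MEP50 (25 nM) preincubated with SAM (10 μM), then 15 min with compound in pH 8.5 Tris buffer, 1% DMSO. Biotin-H4(1–21) peptide (30 nM) reaction ran 120 min at room temperature. H4R3 methylation detected by AlphaLISA; IC50 from four-parameter sigmoidal fit.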
(In Alpha technology, singlet oxygen from a donor bead excites a nearby acceptor bead.)

IC50 data for three compounds are collected here from US11591326B2, “Inhibitors of protein arginine methyltransferase 5 (PRMT5), pharmaceutical products thereof, and methods thereof” (PHARMABLOCK SCIENCES (NANJING), INC., priority 2018, dated 2023).

SMILES strings stand for the structures.

For orientation: IC50 means the concentration needed to halve the response being measured.

Sequence of Human recombinant PRMT5 in complex with human recombinant MEP50 (O14744 whole entry): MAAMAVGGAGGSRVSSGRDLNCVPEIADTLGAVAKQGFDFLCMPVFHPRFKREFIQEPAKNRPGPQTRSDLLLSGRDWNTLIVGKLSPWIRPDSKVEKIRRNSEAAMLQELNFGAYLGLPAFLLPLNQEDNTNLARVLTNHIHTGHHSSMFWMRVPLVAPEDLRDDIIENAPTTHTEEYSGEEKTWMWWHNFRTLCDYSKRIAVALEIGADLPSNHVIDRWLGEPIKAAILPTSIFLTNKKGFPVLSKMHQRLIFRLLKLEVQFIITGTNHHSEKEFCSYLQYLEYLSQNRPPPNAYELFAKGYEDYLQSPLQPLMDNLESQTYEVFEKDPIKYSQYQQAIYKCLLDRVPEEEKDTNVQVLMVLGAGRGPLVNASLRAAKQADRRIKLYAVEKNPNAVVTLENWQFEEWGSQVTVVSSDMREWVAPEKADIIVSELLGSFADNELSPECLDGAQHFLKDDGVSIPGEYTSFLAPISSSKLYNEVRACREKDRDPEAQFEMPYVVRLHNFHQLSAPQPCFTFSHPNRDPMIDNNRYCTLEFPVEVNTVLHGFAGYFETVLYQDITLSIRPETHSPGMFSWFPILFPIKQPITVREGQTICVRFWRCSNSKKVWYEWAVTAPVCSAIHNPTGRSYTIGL
Sequence of Human recombinant PRMT5 in complex with human recombinant MEP50 (Q9BQA1 whole entry partner): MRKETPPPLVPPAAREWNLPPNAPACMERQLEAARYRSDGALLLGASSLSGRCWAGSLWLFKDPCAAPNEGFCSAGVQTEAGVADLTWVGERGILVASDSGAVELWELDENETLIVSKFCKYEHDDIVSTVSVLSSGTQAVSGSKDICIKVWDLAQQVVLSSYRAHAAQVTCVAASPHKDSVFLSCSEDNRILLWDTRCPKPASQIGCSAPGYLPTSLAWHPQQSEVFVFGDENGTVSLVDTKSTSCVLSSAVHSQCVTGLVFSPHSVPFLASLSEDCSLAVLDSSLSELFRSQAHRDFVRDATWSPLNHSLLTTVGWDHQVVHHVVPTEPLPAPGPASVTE

With `CC(=O)N1CCC(Nc2ccc3c(c2)C(=O)N(C[C@@H](O)CN2CCc4ccccc4C2)CCO3)CC1` [Compound 52b], the IC50 in test [1] was determined as 0.83 µM; in test [2], 0.137 µM; in the test on Glioblastoma U-251 cell, 5.8 µM; in test [3], 108 nM.

In the case of `Cn1cc(Nc2ccc3c(c2)C(=O)N(C[C@H](O)CN2CCc4ccccc4C2)CC3)cn1` [Compound 12a, (R)-2-(3-(3,4-dihydroisoquinolin-2(1H)-yl)-2-hydroxypropyl)-7-((1-methyl-1H-pyrazol-4-yl)amino)-3,4-dihydroisoquinolin-1(2H)-one], the IC50 worked out at 0.66 µM in test [1], 0.13 µM in test [2], 0.48 µM with Glioblastoma U-251 cell and 12 nM in test [3].

As for `Cn1cc(Nc2ccc3c(c2)C(=O)N(C[C@H](O)CN2CCc4ccccc4C2)CCO3)cn1` [Compound 29a, (R)-4-(3-(3,4-dihydroisoquinolin-2(1H)-yl)-2-hydroxypropyl)-7-((1-methyl-1H-pyrazol-4-yl)amino)-3,4-dihydrobenzo[f][1,4]oxazepin-5(2H)-one], the IC50 in test [1] was determined as 0.4 µM; in test [2], 0.073 µM; with Glioblastoma U-251 cell, 0.14 µM; in test [3], 8.4 nM.
